Source: US6656921B1, “Use of zinc hyaluronate against peptic ulcer” (Richter Gedeon Vegyeszeti Gyar RT., priority 1997, dated 2003)
Where “and” joins values, the source holds several entries; their conditions need not be identical. Equal values may be shown once. Marks after values point to notes of the source that are not given here.

How the values were obtained:
[1] = tested on: acidified ethanol induced gastric lesion; experiment: Inhibition of acidified-ethanol induced gastric lesions; format: in vivo, rat; settings: for Inhibition / Lesion length/stomach mm ± S.E.M.: 30 min before acidified ethanol
Procedure: Female RG-Wistar rats weighing between 120-150 g were used. Before experiments animals were fasted for 24 hours but received water ad libitum.
Experiments were carried out according to the technique similar to that described by A. Robert [Gastroenterology 77, […] (1979)].
Acidified ethanol (mixture of 50 ml of abs. ethanol and 1 ml of concentrated HCI) was used as strong irritants. Dose of acidified ethanol was 0.5 ml/100 g body weight with intragastric administration. Test compounds were given orally 30 minutes before the acidified ethanol challenge. When the duration of action of test compound was studied test material was administered 60 or 120 minutes earlier to the irritating effect induced by acidified-ethanol effect. One hour after the acidified ethanol treatment rats were sacrificed by cervical dislocation. Stomachs were removed and opened along the greater curvature and mildly washed down. The longitudinal hemorrhagic lesions were assayed by length.
ED50 value was defined as the dose that gave a 50% decrease in ulcer index.

[2] = tested on: indomethacin induced gastric lesion; experiment: Inhibition of indomethacin induced gastric lesion; format: in vivo, rat; settings: for ED50 (dose protecting the stomach by 50% from indomethacin): p.o.
Procedure: 2. Inhibition of Indomethacin Induced Gastric Lesion Female RG Wistar rats weighing between 120-150 g were used. Before the experiments animals were fasted for 24 hours but received water ad libitum. Test compounds were given orally, 30 minutes later the animals were treated subcutaneously with indomethacin at a dose of 40 mg/kg. Four hours after the irritating indomethacin administration the animals were killed by cervical dislocation. The stomachs were removed, opened along the greater curvature and the hemorrhagic lesions were counted on the glandular stomach.
ED50 value represents the dose which protects the stomach by 50 % from the damaging effect of indomethacin.

[3] = tested on: acetic acid induced chronic gastric ulcer; experiment: Inhibition of acetic acid induced chronic gastric ulcer; format: in vivo, rat; settings: for Ulcerated area mm^2 ± S.E.M.: day 5 to 14 after surgery
Procedure: Female, RG Wistar rats weighing between 120-150 g were used. Before the surgery animals were deprived of food for 24 hours but received water ad libitum. The chronic gastric ulcer was induced by the injection of 25 μl/animal of 20% (v/v) acetic acid into the gastric wall under light ether anaesthesia according to the method similar to that described by Takagi et al. (1969). The oral treatment with the test compounds was started five days after the surgery and continued in a once-a-day regimen up to the 14th day. The animals were killed on the 15th day and their stomachs were dissected. The severity of ulceration was evaluated by the measurement of the diameter of the ulcers and the area affected was calculated. The healing effect was expressed as differences in percentage between the control and test group values.

[4] = tested on: indomethacin induced intestinal ulcer; experiment: Inhibition of indomethacin induced intestinal ulcer (tensile strength); format: in vivo, rat; settings: for Tensile strength of intestinal wall as index of ulceration Hgmm ± S.E.M.: indomethacin 15 mg/kg p.o.; for Effect against indomethacin induced intestinal ulceration (in words): rat, in vivo
Procedure: Female, RG-Wistar, non-fasted rats weighing between 120-150 g were used. The intestinal ulcer was induced by oral administration of 15 mg/kg indomethacin. Test compound was given to animals orally 3 times over 48 hours in 24 hour equal intervals. The first introduction of test compound preceded the single indomethacin treatment by 60 minutes. Animals were killed 72 hours after the first administration of the test compound. Control animals received vehicle instead of test compound and normal rats mean non-fasted, non-treated rats. The small intestine segment from pylorus to cecum was removed, placed into 0.9% (w/v) sodium chloride solution at 37° C. and it was connected with a BP recorder through one of its ends via a polyethylene cannula. After ligating both ends of the prepartum the pressure was increased inside the intestine until air bubbles appeared at the weakened site of the intestinal wall. This pressure is expressed in Hgmm and is denoted tensile strength (TS).

[5] = tested on: gastrointestinal motility; experiment: Gastrointestinal motility in the charcoal propulsion test; format: in vivo, rat; settings: 100 mg/kg p.o.
Procedure: Experiments were performed on female, RG-Wistar rats weighing 120-140 g, which were fasted for 24 hours but received water ad libitum.
The experimental procedure was carried out according to the technique similar to that described of P. A. Janssen and A. J. Jageneau [J. Pharm. Pharmacel. 9, 381 (1957)].
Test compounds were given orally at a dose of 100 mg/kg. Control animals received physiological saline solution instead of test compounds. 30 minutes later, the 5% (w/v) charcoal suspension was administered orally at a volume of 0.5 ml/animal. 60 minutes after the charcoal treatment the animals were sacrificed by cervical dislocation. The intestine from pylorus to cecum was removed, its lengths measured along with the distance traversed by the charcoal meal.
Motility was expressed as the ratio of length of charcoal suspension to the length of the whole intestine.

Helicobacter pylori = experiment: Activity against Helicobacter pylori (agar MIC); format: cell-based
Procedure: These experiments were performed on Helicobacter pylori strains cultivated from the gastric biopsy samples of patients suffering from various ulcers. An 1% by (w/w) solutions of De-Nol (colloidal bismuth subcitrate) was used as reference substance. An agar medium supplemented with 10% of bovine blood was employed. Plates containing no substance to be tested were used as controls. The plates inoculated were incubated at 37° C. in a gas atmosphere containing 5% of oxygen and 7-8% of carbon dioxide for 3-5 days. Minimum inhibitory concentration (MIC) value was considered to be the lowest concentration of substances totally inhibiting the growth (propagation) of well-propagating bacteria on control plates.

[6] = 40 mg/kg p.o., 30 min before indomethacin
[7] = 80 mg/kg p.o., 30 min before indomethacin
[8] = 160 mg/kg p.o., 30 min before indomethacin

zinc hyaluronate [Zinc hyaluronate (II)]
Inhibition ([1]; 10 mg/kg p.o.): 42.7%
Lesion length/stomach mm ± S.E.M. ([1]; 10 mg/kg p.o.): 48.0 ± 10.9 mm
Inhibition ([1]; 25 mg/kg p.o.): 77.3%
Lesion length/stomach mm ± S.E.M. ([1]; 25 mg/kg p.o.): 19.0 ± 4.4 mm
Inhibition ([1]; 50 mg/kg p.o.): 84.1%
Lesion length/stomach mm ± S.E.M. ([1]; 50 mg/kg p.o.): 13.3 ± 4.8 mm
Inhibition ([1]; 100 mg/kg p.o.): 98.1%
Lesion length/stomach mm ± S.E.M. ([1]; 100 mg/kg p.o.): 1.6 ± 0.5 mm
ED50 (dose giving 50% decrease in ulcer index) ([1]; p.o., 30 min pretreatment): 11.1 mg/kg
Inhibition ([2]; 1.0 mg/kg p.o., 30 min before indomethacin): 31.8%
Lesion number/stomach ± S.E.M. ([2]; 1.0 mg/kg p.o., 30 min before indomethacin 40 mg/kg s.c.): 8.8 ± 2.1
Inhibition ([2]; 10.0 mg/kg p.o., 30 min before indomethacin): 56.5%
Lesion number/stomach ± S.E.M. ([2]; 10.0 mg/kg p.o., 30 min before indomethacin 40 mg/kg s.c.): 7.4 ± 1.9
Inhibition ([2]; 100 mg/kg p.o., 30 min before indomethacin): 78.2%
Lesion number/stomach ± S.E.M. ([2]; 100 mg/kg p.o., 30 min before indomethacin 40 mg/kg s.c.): 3.7 ± 0.8
ED50 (dose protecting the stomach by 50% from indomethacin) [2]: 5.8 mg/kg
Ulcerated area mm^2 ± S.E.M. ([3]; 0.01 mg/kg p.o. once a day): 6.2 ± 1.0 mm^2
Ulcerated area mm^2 ± S.E.M. ([3]; 0.1 mg/kg p.o. once a day): 5.8 ± 1.1 mm^2
Ulcerated area mm^2 ± S.E.M. ([3]; 1.0 mg/kg p.o. once a day): 3.7 ± 1.6* mm^2 and 3.7 ± 0.6* mm^2
Effect on healing of acetic acid induced chronic ulcer (in words) ([3]; rat, in vivo): accelerated the healing
Tensile strength of intestinal wall as index of ulceration Hgmm ± S.E.M. ([4]; 3 × 1 mg/kg p.o.): 27.9 ± 8.9 Hgmm
Tensile strength of intestinal wall as index of ulceration Hgmm ± S.E.M. ([4]; 3 × 10 mg/kg p.o.): 41.3 ± 10.9 Hgmm
Tensile strength of intestinal wall as index of ulceration Hgmm ± S.E.M. ([4]; 3 × 100 mg/kg p.o.): 48.8 ± 11.3 Hgmm
Increase of tensile strength of intestinal wall compared to the control group ([4]; doses of 10 mg/kg and 100 mg/kg): almost three times
Effect against indomethacin induced intestinal ulceration (in words) [4]: had a protective effect on the intestinal wall
Effect on the intestinal motility (in words) [5]: absence of change in activity
Propulsion of charcoal suspension mm ± S.E.M. ([5]; 30 min before charcoal, 60 min after charcoal, listed as Zink-hyaluronate (II)): 610 ± 3.9 mm
Ratio of charcoal suspension to the whole intestinal part ([5]; listed as Zink-hyaluronate (II)): 0.77 ± 0.04

sucralfate [reference compound]
Inhibition ([1]; 50 mg/kg p.o.): 0%
Lesion length/stomach mm ± S.E.M. ([1]; 50 mg/kg p.o.): 64.0 ± 25.9 mm
Inhibition ([1]; 100 mg/kg p.o.): 75.3%
Lesion length/stomach mm ± S.E.M. ([1]; 100 mg/kg p.o.): 15.0 ± 5.5 mm
Inhibition ([1]; 400 mg/kg p.o.): 87.7%
Lesion length/stomach mm ± S.E.M. ([1]; 400 mg/kg p.o.): 7.5 ± 3.0 mm
Inhibition [2, 6]: 14.8%
Lesion number/stomach ± S.E.M. [2, 6]: 14.4 ± 4.8
Inhibition [2, 7]: 62.1%
Lesion number/stomach ± S.E.M. [2, 7]: 6.4 ± 2.2
Inhibition [2, 8]: 82.8%
Lesion number/stomach ± S.E.M. [2, 8]: 2.9 ± 1.4
ED50 (dose protecting the stomach by 50% from indomethacin) [2]: 74.9 mg/kg
Ulcerated area mm^2 ± s.e.m. ([3]; 100 mg/kg p.o. once a day): 6.7 ± 1.5 mm^2
Ulcerated area mm^2 ± s.e.m. ([3]; 500 mg/kg p.o. once a day): 4.3 ± 1.3* mm^2
Effect on healing % ([3]; 500 mg/kg p.o. once a day, ↓healing slowed down, ↑healing accelerated): 53%
Effect against indomethacin induced intestinal ulceration (in words) [4]: totally ineffective

zinc hyaluronate
In vitro activity against Helicobacter pylori (in words) (Helicobacter pylori): commensurable with activity of De-Nol
MIC (Helicobacter pylori; strain 822/96, agar medium with 10% bovine blood, 37° C., 3-5 days): 500 µg/mL
